Results published in ChEMBL document CHEMBL1138076, “Synthesis and biological evaluation of lisofylline (LSF) analogs as a potential treatment for Type 1 diabetes” (Bioorg Med Chem Lett, 2006).
The source made the active and inactive calls. The rule behind the calls is not given here.

Legend:
INS1 = experiment: Secretion of insulin in INS1 cells at 20 uM; assay type: functional, cell-based; settings: Rattus norvegicus
Pancreatic beta cell = experiment: Protection of cytokine-induced death of pancreatic beta cells at 0.1 uM; assay type: functional, cell-based; settings: Mus musculus
[1] = Stability in human liver microsomes at […] at pH 7.4; assay type: ADME, Microsome; settings: read-out: Stability
[2] = Half life in human liver; assay type: ADME, organism-based

| Structure (SMILES) | Activity (INS1) | Activity (Pancreatic beta cell) | remaining [1] | half-life [2] |
| --- | --- | --- | --- | --- |
| Cc1cnc2n(C)c(=O)n(CCCC[C@@H](C)O)c(=O)n12 | Active | Active | 82% | – |
| C[C@@H](O)CCCCn1c(=O)c2c(ncn2C)n(C)c1=O [LISOFYLLINE] | Active | Active | – | < 3 min |
| C[C@@H](O)CCCCOc1nn(CCCC[C@@H](C)O)c(=O)c2ccccc12 | Active | Active | 75% | – |
| C[C@]12CC[C@H]3[C@@H](CCC4=CC(=O)CC[C@@]43C)[C@@H]1CC[C@@H]2O [TESTOSTERONE] | – | – | 9% | – |
| CC(=O)CC(c1ccccc1)c1c(O)c2ccccc2oc1=O (configuration not stated) [WARFARIN] | – | – | 105% | – |
| CC(C)NCC(O)COc1cccc2ccccc12 (configuration not stated) [PROPRANOLOL] | – | – | 34% | – |
